# pIC50: −log10 of the molar value.
# Legend:
# [1] = target: T1, Vascular endothelial growth factor receptor 2 (Homo sapiens, UniProt P35968); assay: Inhibition of Vascular endothelial growth factor receptor 2(KDR) without DTT (dithiothreitol)
# [2] = target: T1, Vascular endothelial growth factor receptor 2; assay: Inhibition of Vascular endothelial growth factor receptor 2(KDR) with DTT (dithiothreitol)
# [3] = Percent remaining after incubation with NADPH in S9 cell was determined; assay type: ADME, cell-based
# T1 sequence (P35968 whole entry): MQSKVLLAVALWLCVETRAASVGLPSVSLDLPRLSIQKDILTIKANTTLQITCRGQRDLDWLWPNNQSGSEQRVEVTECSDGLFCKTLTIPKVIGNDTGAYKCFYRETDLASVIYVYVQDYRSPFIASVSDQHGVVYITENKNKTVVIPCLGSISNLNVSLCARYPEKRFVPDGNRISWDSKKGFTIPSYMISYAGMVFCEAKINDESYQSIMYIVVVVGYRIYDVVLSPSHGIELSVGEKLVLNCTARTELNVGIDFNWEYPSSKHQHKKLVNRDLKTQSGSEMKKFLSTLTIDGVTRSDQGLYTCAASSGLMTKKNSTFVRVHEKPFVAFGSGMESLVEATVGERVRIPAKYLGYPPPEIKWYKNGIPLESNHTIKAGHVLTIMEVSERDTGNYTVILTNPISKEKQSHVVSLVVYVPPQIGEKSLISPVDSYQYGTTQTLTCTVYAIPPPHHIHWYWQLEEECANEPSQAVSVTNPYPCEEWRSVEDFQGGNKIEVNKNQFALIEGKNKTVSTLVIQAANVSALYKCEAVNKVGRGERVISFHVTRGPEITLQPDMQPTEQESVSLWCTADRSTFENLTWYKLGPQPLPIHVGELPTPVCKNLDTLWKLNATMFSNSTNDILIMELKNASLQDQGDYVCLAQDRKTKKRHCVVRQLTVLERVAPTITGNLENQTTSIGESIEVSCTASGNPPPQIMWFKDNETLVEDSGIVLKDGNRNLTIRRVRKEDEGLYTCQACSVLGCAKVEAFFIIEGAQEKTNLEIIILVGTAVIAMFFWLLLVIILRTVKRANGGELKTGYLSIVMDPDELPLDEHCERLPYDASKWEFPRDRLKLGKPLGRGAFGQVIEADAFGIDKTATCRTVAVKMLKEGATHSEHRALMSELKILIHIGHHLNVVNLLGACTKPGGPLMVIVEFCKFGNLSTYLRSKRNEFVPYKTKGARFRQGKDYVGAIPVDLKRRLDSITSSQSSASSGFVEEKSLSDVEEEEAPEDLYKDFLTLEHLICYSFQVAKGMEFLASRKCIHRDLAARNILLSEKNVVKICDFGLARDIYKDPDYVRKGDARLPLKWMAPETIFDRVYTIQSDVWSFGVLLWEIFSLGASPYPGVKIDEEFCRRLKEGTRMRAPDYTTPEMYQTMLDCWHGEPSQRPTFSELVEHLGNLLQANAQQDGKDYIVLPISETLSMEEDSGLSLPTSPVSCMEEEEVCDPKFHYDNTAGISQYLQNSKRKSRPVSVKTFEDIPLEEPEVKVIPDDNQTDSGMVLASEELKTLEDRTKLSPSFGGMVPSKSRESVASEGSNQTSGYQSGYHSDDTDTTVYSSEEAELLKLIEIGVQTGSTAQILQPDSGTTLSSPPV
pIC50 [1],pIC50 [2],Remaining activity [3] [%],Structure (SMILES)
6.14,6.77,,O=C1Nc2ccccc2S/C1=C\c1c[nH]c2c(C(=O)N3CCC(N4CCCCC4)CC3)cccc12
6.54,6.80,,O=C1Nc2ccccc2S/C1=C\c1c[nH]c2cc(OCCN3CCOCC3)ccc12
5.60,6.08,80,CCN(CC)CCc1c(C)[nH]c(/C=C2\C(=O)NN=C2C2CC2)c1C
6.39,4.40,,O=C1NN=C(c2cnccn2)/C1=C/c1cc2ccccc2[nH]1
,,18,Cc1[nH]c(/C=C2\C(=O)NN=C2c2cnccn2)c(C)c1CN(C)C
7.70,6.33,,O=C1NN=C(c2cnccn2)/C1=C/c1[nH]c2ccccc2c1-c1ccccc1
7.22,6.85,,Cc1c(/C=C2\C(=O)NN=C2c2cnccn2)[nH]c2ccccc12
6.68,7.10,72,CCN(CC)CCc1c(C)[nH]c(/C=C2\C(=O)NN=C2c2cnccn2)c1C
